Test results: patent publication US12636260B2, “Application of α-asarone in preparation of medicine for preventing or treating hemorrhagic stroke” (CHENGDU XINRUI TAIKANG TECHNOLOGY CO., LTD., priority 2021, dated 2026)

Legend:
[1] = system: SAH rats; test: Brain water content and blood-brain barrier permeability (Evans blue), SAH rats; assay type: in vivo, rat; conditions: 24 hours after operation, group M, medium-dose intravenous, vs model group
Description: After completing the evaluation of 24-hour short-term neurological function, 4% Evans blue solution (2.5 mL/kg) was injected into the right caudal vein of the rats. After circulated for 1 hour, the rats were deeply anesthetized and transcardinally perfused with 100 mL of normal saline to collect the rats' brain. The whole brain was divided into four groups: left hemisphere (LH), right hemisphere (RH), cerebellum (Cb) and brainstem (BS). The left and right hemispheres were coronally divided into two parts, one part was immediately weighed (wet weight) with a balance with an accuracy of 0.1 mg, dried in an oven at 105° C. for 24 hours and weighed again (dry weight). The brain water content was calculated as [(wet weight−dry weight)/wet weight]×100%. The other part of the brain tissue was weighed (wet weight) and emerged into 10 times the volume of pure formamide, incubated at 60° C. for 48 hours, centrifuged at 25° C. for 30 min (10,000 rpm/min). The Evans blue in the supernatant was measured at 622 nm by a UV spectrophotometry, and calculated with a standard curve for quantification. The amount of Evans blue was expressed as μg/g of brain tissue (wet weight).

[2] = system: ICH rats; test: Glutamate and GABA content in brain tissue, ICH rats; assay type: in vivo, rat; conditions: 12 to 24 hours after operation, group M
Description: The rats were deeply anesthetized, and decapitated to collect the brain at 12-24 hours after modeling. Then about 60 to 120 mg of brain cortex on the hemorrhagic side were weighed, homogenized with 10 times the volume of ice-cold centrifuge buffer for biochemical detection, homogenized for 10 min in an ice bath, and centrifuged at 4° C. for 30 minutes (14,000 rpm/min). The contents of glutamate and GABA in the supernatant were detected according to the instructions of glutamate content detection kit and rat GABA Elisa kit.

[3] = system: PC12 cells; test: Oxyhemoglobin-damaged PC12 cells, MTT; assay type: cell-based; conditions: α-asarone emulsion 1, 5, 10, 25, 50 μM pre-incubated 2 hours, 6 μM oxyhemoglobin 24 hours
Description: PC12 cells in the logarithmic phase of growth were seeded in a 96-well plate (1×10^4 cells/100 μL/well) with the marginal wells filled with sterile PBS, and cultured with complete culture medium at 37° C. with 5% CO2 for 24 hours until the cells completely adhered to the wall. The supernatant was discarded followed by oxyhemoglobin incubation at 37° C. with 5% CO2 for 24 hours with final concentrations of 0 μM, 4 μM, 6 μM, 8 μM and 10 μM, respectively. Subsequently, 10 μL MTT (5 mg/mL) was added into each well and incubated at 37° C. with 5% CO2 for 4 hours. Then, the supernatant was discarded, the formazan was dissolved with 100 μL DMSO, and the optical density (OD) was gauged at 570 nm by a microplate reader after incubation at 37° C. for 15 minutes (500 r/min) to calculate the cell viability. According to the formula “fold of cell abnormal proliferation=[(average absorbance value of the experimental group−average absorbance value of zero-adjusting well)/(average absorbance value of the control group−average absorbance value of zero-adjusting well)”, 6 μM oxyhemoglobin was screened out for following in vitro pharmacodynamic experiment since it produced a maximum of 1.5-fold abnormal cell proliferation compared to the control group. […]

[4] = system: mouse bone marrow cells; test: Mouse bone marrow micronucleus test by flow cytometry; assay type: in vivo; conditions: mice; for MNPCE / PCE / fMNPCE (‰): 4 days
Description: Experimental grouping and administration: The animals were randomly divided into five groups with 10 […] in each group: blank control group (blank group, administrated blank emulsion with the same volume as the high-dose group of α-asarone), cyclophosphamide group (CTX group, 40 mg/kg), low dose of α-asarone emulsion injection group (prepared by preparation embodiment 7, 100 mg/kg/day, ASA-L group), medium dose of α-asarone emulsion injection group (prepared by preparation embodiment 7, 150 mg/kg/day, ASA-M group), and high dose of α-asarone emulsion injection group (prepared from preparation embodiment 7, 200 mg/kg/day, ASA-H group).
All drugs were administrated through the tail vein for continuous 4 days except for the single injection of the positive control drug cyclophosphamide (CTX) 24 hours before sampling. After 24 hours of the last administration, the mice were sacrificed to separate both femurs. The femoral bone marrow cells were washed with PBS and filtered by 300 mesh nylon cell sieves to prepare a single-cell suspension. The suspension was centrifuged at 1650 rpm for 5 min, and the cell concentration was adjusted to 5×10^6 cells/mL by PBS resuspension. For each sample, 100 μL of the cell suspension was incubated with 400 μL of the PIPES-PI solution (10 mL of PIPES solution (concentration of 3.5 mg/mL)+0.5 mg PI+0.01 mL Triton X-100 (concentration of 0.1%)), gently blown and mixed, at 4° C. in the dark for 30 min and detected by a flow cytometry. […] The higher the value, the stronger the genotoxicity.

[5] = ASA-H group, α-asarone emulsion injection 200 mg/kg/day tail vein
[6] = ASA-L group, α-asarone emulsion injection 100 mg/kg/day tail vein
[7] = ASA-M group, α-asarone emulsion injection 150 mg/kg/day tail vein

In the case of `C/C=C/c1cc(OC)c(OC)cc1OC` [α-asarone, trans-2,4,5-trimethoxy-1-propenylbenzene], the Evans blue content [1] was “significantly reduce”, the brain water content [1] was “significantly reduce” and the “GABA content in the hemorrhagic brain tissue” value [2] was “significantly reduce”. For the same molecule, the “glutamate content in the hemorrhagic brain tissue” value [2] was “significantly reduce”, the “abnormal increase of cell vitality caused by oxyhemoglobin” value [3] was “significantly reduced” and the MNPCE [4, 5] was 0.55 ± 0.43. The PCE [4, 5] was 41.39 ± 6.11, the “fMNPCE (‰)” value [4, 5] was 12.60 ± 8.53 ‰ and the MNPCE [4, 6] was 0.39 ± 0.11. For the same molecule, the PCE [4, 6] was 40.58 ± 9.17, the “fMNPCE (‰)” value [4, 6] was 10.10 ± 2.75 ‰ and the MNPCE [4, 7] was 0.47 ± 0.19. For the same molecule, the PCE [4, 7] was 38.37 ± 3.18, the “fMNPCE (‰)” value [4, 7] was 12.34 ± 5.52 ‰ and the “micronucleus rate compared to the blank emulsion group” value ([4]; different doses of α-asarone emulsion injection (100, 150, 200 mg/kg/day)) was “no significant difference”. For the same molecule, the “changes in the micronucleus rate of mouse bone marrow cells” value ([4]; intravenous dose of up to 200 mg/kg α-asarone emulsion injection) was “no significant changes”.
